Measurements: patent publication EP0458892B1, “USE OF CHLORMETHIAZOLE IN THE MANUFACTURE OF A MEDICAMENT FOR THE PREVENTION AND/OR TREATMENT OF NEURODEGENERATION” (priority 1989, dated 1990)

Legend:
[1] = test system: CA1/CA2 hippocampal neurones; assay: Gerbil carotid occlusion ischaemia, test compound administered prior to induction of ischaemia; format: in vivo; conditions: gerbils; for % Damage to CA1/CA2 Hippocampal Neurones: assessed after 4 days
From the text: (§1) The detailed mechanisms that underlie ischaemia-induced degeneration of hippocampal neurones have yet to be clarified, but the above mentioned gerbil test system has been widely used as a predictive model of neuroprotective activity (see, for example, B.J. Alps, C. Calder, W.K. Hass and A.D. Wilson, Brit. J. Pharmacol., 1988, 93, 877-883; R. Gill, A.C. Foster and G.N. Woodruff, J. Neuroscience, 1987, 7, 3343-3349).
(§2) Ischaemia was induced in gerbils by occlusion of the carotid arteries following the accepted general procedure as described in, for example, EP 230 370 and R. Gill, A.C. Foster and G.N. Woodruff, J. Neuroscience, 1987, 7, 3343-3349.
(§3) Ischaemia was induced in gerbils by 10 minute occlusion of both carotid arteries. Restoration of blood flow after occlusion was checked visually and the animals were allowed to survive for 4 days. The extent of neuronal degeneration in the hippocampus was then assessed. The test compounds were administered (i.p.) as a single dose 30 minutes prior to occlusion.

[2] = test system: CA1/CA2 hippocampal neurones; assay: Gerbil carotid occlusion ischaemia, test compound administered following induction of ischaemia; format: in vivo; conditions: gerbils; for % Damage to CA1/CA2 Hippocampal Neurones: assessed after 4 days
From the text: as §1, §2, §3
The general procedure described in (a) above was followed except that the test compound was administered (i.p.) as a single dose at the stated time following the end of the occlusion. No administration was made prior to the occlusion.

Cc1ncsc1CCCl [Chlormethiazole ethanedisulphonate]
% Damage to CA1/CA2 Hippocampal Neurones ([1]; 50mg/kg i.p. single dose 30 minutes prior to 10 minute occlusion of both carotid arteries): 37.6 ± 13.4% | % Damage to CA1/CA2 Hippocampal Neurones ([1]; 100mg/kg i.p. single dose 30 minutes prior to 10 minute occlusion of both carotid arteries): < 5% | % Damage to CA1/CA2 Hippocampal Neurones ([2]; 50mg/kg i.p. single dose 30 minutes after the end of 10 minute occlusion): 69.4 ± 6.9% | % Damage to CA1/CA2 Hippocampal Neurones ([2]; 100mg/kg i.p. single dose 30 minutes after the end of 10 minute occlusion): 12.8 ± 10.4% | % Damage to CA1/CA2 Hippocampal Neurones ([2]; 100mg/kg i.p. single dose 1 hour after the end of 10 minute occlusion): 14.3 ± 8.7% | % Damage to CA1/CA2 Hippocampal Neurones ([2]; 100mg/kg i.p. single dose 2 hours after the end of 10 minute occlusion): 7.25 ± 4.8% | % Damage to CA1/CA2 Hippocampal Neurones ([2]; 100mg/kg i.p. single dose 6 hours after the end of 10 minute occlusion): 45.6 ± 14%

CC(C(O)c1ccc(O)cc1)N1CCC(Cc2ccccc2)CC1 (centres unmarked) [Ifenprodil]
% Damage to CA1/CA2 Hippocampal Neurones ([1]; 4mg/kg i.p. single dose 30 minutes prior to 10 minute occlusion of both carotid arteries): 62 ± 8.0%

C[C@]12N[C@H](Cc3ccccc31)c1ccccc12 [MK 801]
% Damage to CA1/CA2 Hippocampal Neurones ([1]; 3mg/kg i.p. single dose 30 minutes prior to 10 minute occlusion of both carotid arteries): < 5%

Cc1ncsc1CCCl [chlormethiazole, 5-(2-chloroethyl)-4-methylthiazole]
damage to the CA1/CA2 hippocampal neurones (result in words) ([1]; i.p. single dose 30 minutes prior to occlusion, summary of Table 1): effective in reducing the damage to the CA1/CA2 hippocampal neurones | damage to the CA1/CA2 hippocampal neurones (result in words) ([2]; i.p. single dose after the ischaemic insult, summary of Table 2): effective in reducing the damage to the CA1/CA2 hippocampal neurones
